Experimental data taken from publication PMC12004446, “Inhibition by 4-(4-Bromo-2-oxo-3H-benzimidazol-1-yl)-N-(4-iodophenyl)piperidine-1-carboxamide (TH5487) of the Activity of Human 8-Oxoguanine DNA Glycosylase-1 (OGG1) for the Excision of 2,6-Diamino-4-hydroxy-5-formamidopyrimidine, 4,6-Diamino-5-formamidopyrimidine, and 8-Oxoguanine from Oxidatively …” (Biochemistry, 2025).
pIC50: −log10 of the molar value.

Target: T1, human 8-oxoguanine DNA glycosylase-1 (hOGG1) (Homo sapiens, UniProt O15527)
T1 construct: gene OGG1
T1 sequence (O15527 whole entry): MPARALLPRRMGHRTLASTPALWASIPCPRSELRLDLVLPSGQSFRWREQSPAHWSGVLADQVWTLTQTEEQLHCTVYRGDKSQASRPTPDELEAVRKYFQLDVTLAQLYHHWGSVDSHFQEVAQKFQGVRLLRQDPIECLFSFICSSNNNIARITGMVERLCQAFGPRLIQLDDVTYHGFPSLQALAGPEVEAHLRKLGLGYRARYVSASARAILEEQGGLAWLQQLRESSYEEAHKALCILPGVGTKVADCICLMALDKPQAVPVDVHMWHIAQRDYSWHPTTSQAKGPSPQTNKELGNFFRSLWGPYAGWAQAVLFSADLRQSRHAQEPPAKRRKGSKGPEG
Experiment: fluorescence-based 8-oxo-Gua duplex oligodeoxynucleotide incision assay with purified hOGG1; also GC-MS/MS of lesion excision from genomic DNA
Assay type: biochemical

pIC50: 6.10
Compound: O=C(Nc1ccc(I)cc1)N1CCC(n2c(=O)[nH]c3c(Br)cccc32)CC1 [TH5487, 4-(4-bromo-2-oxo-3H-benzimidazol-1-yl)-N-(4-iodophenyl)piperidine-1-carboxamide]
